From patent US20200109126A1 (priority 2017, published 2020)
Entries after “also recorded” stand apart in the source; their conditions may differ.

Tests used:
κOR = target: T1, κOR (Homo sapiens, UniProt P41145); experiment: Gi/o Glosensor assay at κOR; type: cell-based
T1 construct: NIMH Psychoactive Drug Screening Program (PDSP)

μOR [1] = target: T2, μOR (Homo sapiens, UniProt P35372); experiment: β-arrestin recruitment at μOR without GRK2; type: cell-based
μOR [2] = target: T2, μOR; experiment: β-arrestin recruitment at μOR with GRK2 co-expression; type: cell-based
C57BL/6J mice [3] = experiment: Conditioned place preference; settings: mouse, in vivo
Experimental: On day 1 (preconditioning day), mice were placed in the central chamber and allowed to explore freely for 30 minutes. Time spent in each compartment was used to estimate baseline chamber preferences and mice showing specific chamber bias more than 70% were not studied further. On days 2-9 (conditioning days) mice were injected with either vehicle or drug and paired with either the white mesh or the black rod chambers. All mice received vehicle on days 2, 4, 6, 8 and drug on days 3, 5, 7, 9. On day 10 (test day), mice were again placed in the central chamber as on day 1 and allowed to explore freely for 30 minutes. Time spent in each chamber was expressed as percentage preference.

C57BL/6J mice [4] = experiment: Mouse whole body plethysmography (respiration); settings: equianalgesic doses of PZM21, TRV130 and morphine (40 mg/kg, […], 10 mg/kg)
μOR [5] = target: T2, μOR; experiment: BRET-based cAMP accumulation assay (SAR of PZM21-29); type: cell-based
μOR:N127C = target: T3, μOR:N127C (Homo sapiens, UniProt P35372, N129C); experiment: Radioligand depletion assay, irreversible binding at μOR:N127C; settings: wash-resistant inhibition of radioligand binding
T3 construct: expressed in transfected cells; host or cells: HEK 293
T3 sequence (P35372 whole entry N129C): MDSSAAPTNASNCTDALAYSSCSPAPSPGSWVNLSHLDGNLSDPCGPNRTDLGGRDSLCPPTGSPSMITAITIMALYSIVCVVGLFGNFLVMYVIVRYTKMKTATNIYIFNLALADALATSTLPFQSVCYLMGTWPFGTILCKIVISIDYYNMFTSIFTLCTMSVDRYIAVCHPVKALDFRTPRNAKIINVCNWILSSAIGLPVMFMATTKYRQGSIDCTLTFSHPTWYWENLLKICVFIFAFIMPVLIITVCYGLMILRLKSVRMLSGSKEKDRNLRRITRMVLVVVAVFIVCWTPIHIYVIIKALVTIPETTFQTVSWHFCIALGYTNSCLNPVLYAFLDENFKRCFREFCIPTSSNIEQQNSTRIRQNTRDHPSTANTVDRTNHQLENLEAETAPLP

T2 sequence (P35372 whole entry): as the sequence (P35372 whole entry N129C) above, with C129N counted along it
T1 sequence (P41145 whole entry): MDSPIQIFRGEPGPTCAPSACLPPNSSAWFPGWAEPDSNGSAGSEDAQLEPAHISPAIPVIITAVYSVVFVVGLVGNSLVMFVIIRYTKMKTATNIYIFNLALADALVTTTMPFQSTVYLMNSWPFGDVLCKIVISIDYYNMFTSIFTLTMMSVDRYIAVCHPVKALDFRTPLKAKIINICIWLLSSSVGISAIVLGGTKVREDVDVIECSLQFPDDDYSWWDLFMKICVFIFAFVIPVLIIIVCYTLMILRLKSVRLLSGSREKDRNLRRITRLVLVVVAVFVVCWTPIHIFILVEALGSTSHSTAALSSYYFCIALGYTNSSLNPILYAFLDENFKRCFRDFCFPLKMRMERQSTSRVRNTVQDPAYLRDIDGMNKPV

| Compound | KOR agonist activity (in words) (κOR) | β-arrestin2 recruitment in the absence of GRK2 (in words) (μOR [1]) | arrestin recruitment with over-expressed GRK2 (in words) (μOR [2]) | conditioned place preference (C57BL/6J mice [3]) | respiration frequency (C57BL/6J mice [4]) | efficacy and potency as agonist (in words) (μOR [5]) | irreversible binding to μOR:N127C (μOR:N127C) |
| --- | --- | --- | --- | --- | --- | --- | --- |
| COc1ccsc1CNCC[C@@]1(c2ccccn2)CCOC2(CCCC2)C1 [TRV130, reference compound] | activates κOR with similar potency to morphine | no β-arrestin2 recruitment | arrestin recruitment | not significant relative to vehicle | significantly depresses respiration at 15 minutes |  |  |
| CN(C)[C@H](CNC(=O)NCCc1cn(CCSSCCN=[N+]=[N-])nn1)Cc1ccc(O)cc1 [PZM29, (S)-1-(2-(1-(2-((2-Azidoethyl)disulfanyl)ethyl)-1H-1,2,3-triazol-4-yl)ethyl)-3-(2-(dimethylamino)-3-(4-hydroxyphenyl)propyl)urea x CF3COOH] |  |  |  |  |  | retains its efficacy as an agonist | binds to the μOR:N127C variant irreversibly; also recorded: binds irreversibly to this mutant |
